# Test results: ChEMBL document CHEMBL4177539, “Discovery of N-((3R,4R)-4-Fluoro-1-(6-((3-methoxy-1-methyl-1H-pyrazol-4-yl)amino)-9-methyl-9H-purin-2-yl)pyrrolidine-3-yl)acrylamide (PF-06747775) through Structure-Based Drug Design: A High Affinity Irreversible Inhibitor Targeting Oncogenic EGFR Mutants with Selectivity over Wild-Type EGFR” (J Med Chem, 2017)
# Test: in vitro
# Conditions: dog, MDCK
compound,measurement,value
CC(C)C(CO)Nc1nc(Nc2ccc(N3CCNCC3)cc2)c2ncn(C(C)C)c2n1 (racemic),Papp,1.9 ×10⁻⁶ cm/s
